Test results as given in ChEMBL document CHEMBL1201862, “PubChem BioAssay data set” (2004).
The source made the active and inactive calls.

What was measured:
[1] = Fluorescence-based cell-based high throughput dose response assay for inhibitors of the interaction of nucleotide-binding oligomerization domain containing 2 (NOD2) and the receptor-interacting serine-threonine kinase 2 (RIPK2).; type: functional; conditions: Homo sapiens
[2] = non-specific cell cytotoxicity, dose response, cytotoxicity control for PAX8 inhibitor project, plate reader, dry powder samples (AID 743021); type: functional, cell-based
[3] = biological target: T1, Protein RecA (Mycobacterium tuberculosis, UniProt P9WHJ3); test: Fluorescence Cell-Free Homogeneous Dose Retest to Identify Inhibitors of RecA-Intein Splicing Activity. [Related pubchem assays (depositor defined):AID2097, AID2223, AID489010, AID492950]; type: functional
T1 sequence (P9WHJ3 whole entry): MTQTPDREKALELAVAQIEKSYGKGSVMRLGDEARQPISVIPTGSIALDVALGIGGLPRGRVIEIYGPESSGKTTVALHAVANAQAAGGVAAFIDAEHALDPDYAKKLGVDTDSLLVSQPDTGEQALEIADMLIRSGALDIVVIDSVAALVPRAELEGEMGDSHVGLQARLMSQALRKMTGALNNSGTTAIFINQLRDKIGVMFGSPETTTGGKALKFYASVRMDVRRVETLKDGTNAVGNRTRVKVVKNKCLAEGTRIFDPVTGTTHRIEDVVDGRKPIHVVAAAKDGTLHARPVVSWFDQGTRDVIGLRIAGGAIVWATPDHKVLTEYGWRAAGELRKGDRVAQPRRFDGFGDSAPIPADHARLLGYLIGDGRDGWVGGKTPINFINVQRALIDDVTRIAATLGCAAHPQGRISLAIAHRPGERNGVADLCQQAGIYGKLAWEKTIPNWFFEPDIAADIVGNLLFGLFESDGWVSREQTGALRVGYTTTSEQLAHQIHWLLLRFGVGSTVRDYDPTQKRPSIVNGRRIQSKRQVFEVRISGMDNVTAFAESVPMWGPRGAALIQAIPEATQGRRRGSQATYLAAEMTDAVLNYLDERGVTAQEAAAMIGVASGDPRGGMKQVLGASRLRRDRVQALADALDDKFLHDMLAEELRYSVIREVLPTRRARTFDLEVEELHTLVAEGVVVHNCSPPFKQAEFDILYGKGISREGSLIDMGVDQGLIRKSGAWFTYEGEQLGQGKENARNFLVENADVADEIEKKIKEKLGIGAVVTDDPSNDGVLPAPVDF

[4] = Vero E6 cell cytotoxicity, dose response, cytotoxicity control for non-replicating M. tuberculosis project, secondary assay (AID 492998); type: functional, VeroE6; conditions: Vero C1008
[5] = THP-1 cell cytotoxicity, dose response, cytotoxicity control for non-replicating M. tuberculosis project (AID 489025); type: functional
[6] = biological target: T2, Heat shock factor protein 1 (Mus musculus, UniProt P38532); test: HSF1 potentiators in luciferase reporter cells, confirmation, cell-based, NIH3T3, luminescence, dose retest (AID 435004); type: functional;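 further: stress induced by proteasome inhibitor MG132 added 30 min after compound; luciferase reporter driven by HSF1 response element in NIH3T3 cells; actives raise luminescence as potentiators of the MG132 stress response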
T2 sequence (P38532 whole entry): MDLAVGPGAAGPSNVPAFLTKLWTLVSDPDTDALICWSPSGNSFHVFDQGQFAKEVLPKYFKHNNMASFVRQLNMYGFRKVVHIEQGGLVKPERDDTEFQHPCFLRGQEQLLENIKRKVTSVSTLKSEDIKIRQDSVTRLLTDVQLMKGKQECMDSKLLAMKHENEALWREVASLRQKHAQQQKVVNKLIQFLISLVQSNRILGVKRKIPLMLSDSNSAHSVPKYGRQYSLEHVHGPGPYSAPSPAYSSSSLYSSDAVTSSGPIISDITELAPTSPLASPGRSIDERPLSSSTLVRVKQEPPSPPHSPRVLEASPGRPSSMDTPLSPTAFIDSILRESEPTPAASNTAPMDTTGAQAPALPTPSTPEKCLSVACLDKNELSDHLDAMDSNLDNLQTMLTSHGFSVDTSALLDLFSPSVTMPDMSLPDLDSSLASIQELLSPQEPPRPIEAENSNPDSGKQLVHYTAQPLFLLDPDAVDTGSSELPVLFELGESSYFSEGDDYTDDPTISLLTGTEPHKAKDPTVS

[7] = cells; type: functional
[8] = biological target: Paired box protein Pax-8 (Homo sapiens, UniProt Q06710); test: inhibitors of PAX8-driven TPO luciferase reporter, dose response, RMG-I cells, cherry-pick (AID 687027); type: functional, cell-based;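 further: luciferase reporter driven by Pax8 target thyroperoxidase promoter measured by SteadyGlo luminescence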
[9] = HepG2 cell cytotoxicity, dose response, cytotoxicity control for non-replicating M. tuberculosis project (AID 489018); type: functional; conditions: Mycobacterium tuberculosis
[10] = biological target: T3, Replicative DNA helicase DnaB (Mycobacterium tuberculosis, UniProt P9WMR3); test: DnaB intein splicing inhibitors, dose response, biochemical, cell-free fluorescence (AID 449749); type: functional
T3 sequence (P9WMR3 whole entry): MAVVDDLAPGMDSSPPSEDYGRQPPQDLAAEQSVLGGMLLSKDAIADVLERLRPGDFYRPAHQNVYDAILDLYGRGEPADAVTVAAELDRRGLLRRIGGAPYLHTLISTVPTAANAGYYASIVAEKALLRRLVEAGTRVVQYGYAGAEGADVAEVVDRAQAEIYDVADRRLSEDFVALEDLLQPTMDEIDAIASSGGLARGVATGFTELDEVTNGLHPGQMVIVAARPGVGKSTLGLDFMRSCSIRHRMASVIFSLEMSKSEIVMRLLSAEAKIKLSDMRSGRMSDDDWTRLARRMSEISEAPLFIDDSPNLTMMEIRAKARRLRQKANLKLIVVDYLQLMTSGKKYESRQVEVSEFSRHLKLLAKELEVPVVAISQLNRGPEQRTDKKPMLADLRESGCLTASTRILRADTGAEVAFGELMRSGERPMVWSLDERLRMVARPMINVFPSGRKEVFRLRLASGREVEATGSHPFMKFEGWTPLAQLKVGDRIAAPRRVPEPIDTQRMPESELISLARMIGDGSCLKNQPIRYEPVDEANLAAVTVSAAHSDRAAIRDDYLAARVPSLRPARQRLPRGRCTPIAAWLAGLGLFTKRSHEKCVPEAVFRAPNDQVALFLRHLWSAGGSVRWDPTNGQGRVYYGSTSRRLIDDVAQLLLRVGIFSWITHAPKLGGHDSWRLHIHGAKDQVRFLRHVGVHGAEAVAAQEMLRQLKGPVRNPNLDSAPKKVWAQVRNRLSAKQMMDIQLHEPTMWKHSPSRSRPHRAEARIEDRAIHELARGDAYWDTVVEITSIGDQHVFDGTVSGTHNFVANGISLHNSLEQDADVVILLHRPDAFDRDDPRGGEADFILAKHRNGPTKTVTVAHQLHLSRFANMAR

[11] = Luminescent dose response cell-based high throughput screening assay for inhibitors of the Janus kinase 2 mutant JAK2V617F. [Related pubchem assays: 1446 (Primary screen.), 1521 (Confirmation assay.), 1486 (Counter screen.)]; type: functional
[12] = tested on: Danio rerio; test: In Vivo Angiogenesis Dose-Response Confirmation. [Related pubchem assays: 732 (Assay preceding this confirmatory assay.)]; type: functional, organism-based
[13] = biological target: Genome polyprotein (Hepatitis C virus, UniProt Q2Q167); test: HCV core protein dimerization inhibitors, dose response, biochemical, TR-FRET (AID 2159); parameters: species or system Hepacivirus hominis;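 further: blocks dimerization of HCV core protein measured by TR-FRET between tagged core106 pairs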
[14] = biological target: T4, SUMO-activating enzyme (Homo sapiens, UniProt Q9UBT2); test: inhibitors of in vitro SUMOylation cascade, primary screen, biochemical, HTRF, uHTS (AID 2006); type: protein-complex assay
[15] = biological target: T4, SUMO-activating enzyme; test: SUMOylation inhibitor hit validation, confirmation, SUMOylation inhibitor project, biochemical, AlphaScreen (AID 2018); type: functional
[16] = biological target: Genome polyprotein (dengue virus type 2, UniProt P29990); test: Dengue-2 NS5 methyltransferase inhibitors, primary screen, biochemical, confirmation dose response (AID 588689); type: functional
[17] = biological target: Mitogen-activated protein kinase 10 (Homo sapiens, UniProt P53779); test: Dose response biochemical screening assay for inhibitors of c-Jun N-Terminal Kinase 3 (JNK3). [Related pubchem assays: 746 ]
[18] = biological target: Galanin receptor type 3 (Homo sapiens, UniProt O60755); test: Fluorescence-based cell-based primary high throughput dose response assay to identify antagonists of the Galanin Receptor 3 (GalR3).; type: functional
[19] = control 3'UTR Renilla luciferase suppression, dose response, counter-screen for Shn3 inhibitor project, cell-based, Clone20-Shn3RL, cherry-picked (AID 624133); type: functional
[20] = Shn3 3'UTR reporter inhibitors, dose response, cell-based, Clone20 osteoblasts, firefly luciferase, cherry-picked (AID 624132); type: functional;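 further: firefly luciferase luminescence from reporter carrying the Shn3 3'UTR in osteoblasts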
[21] = HepG2 cell cytotoxicity, dose response, cytotoxicity control for Shn3 inhibitor project, CellTiter-Glo, cherry-picked (AID 624134); type: functional, cell-based
[22] = tested on: Streptococcus sp. 'group A'; test: growth inhibition of control SK(-) GAS strain, dose response, counter-screen for streptokinase expression inhibitor project, luminescence, kanamycin, BacTiterGlo, confirmation (AID 1900); type: functional, organism-based
[23] = cytotoxicity in KRAS-transformed pancreatic duct cells, primary screen, cell-based, fluorescence, HTS (AID 431); type: functional; conditions: Homo sapiens;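 further: cell line used: HPDE-C7K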
[24] = tested on: HEK293; test: inhibitors of LMP1-driven NF-kB reporter, dose response, cell-based, HEK293, luciferase, cherry-pick (AID 588343); type: functional; conditions: Homo sapiens
[25] = tested on: Streptococcus; test: Group A Streptococcus viability loss, dose response, counter-screen for streptokinase expression inhibitor project, luminescence, BacTiterGlo (AID 1915); type: functional, organism-based;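 further: potency for reduction of bacterial viability or growth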
[26] = cells; type: functional, cell-based; conditions: HEK-CNG
[27] = biological target: Sphingosine 1-phosphate receptor 2 (Homo sapiens, UniProt O95136); test: Dose Response Cell Based Assay for Antagonists of the S1P2 Receptor. [Related pubchem assays: 856, 736 ]; type: functional
[28] = cytotoxicity in HPDE-C7 cells, cell-based, fluorescence, HTS (AID 430); type: functional; conditions: Homo sapiens

T4 sequence (Q9UBE0 whole entry): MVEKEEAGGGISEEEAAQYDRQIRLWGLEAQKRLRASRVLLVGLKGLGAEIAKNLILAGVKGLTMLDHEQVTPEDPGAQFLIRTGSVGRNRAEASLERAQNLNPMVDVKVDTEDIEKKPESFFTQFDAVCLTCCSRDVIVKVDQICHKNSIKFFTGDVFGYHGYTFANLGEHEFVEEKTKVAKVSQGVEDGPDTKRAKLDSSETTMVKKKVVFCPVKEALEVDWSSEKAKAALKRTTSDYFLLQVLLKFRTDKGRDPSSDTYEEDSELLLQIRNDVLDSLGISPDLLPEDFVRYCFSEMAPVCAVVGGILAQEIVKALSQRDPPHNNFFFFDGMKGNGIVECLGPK
T4 sequence (Q9UBT2 whole entry): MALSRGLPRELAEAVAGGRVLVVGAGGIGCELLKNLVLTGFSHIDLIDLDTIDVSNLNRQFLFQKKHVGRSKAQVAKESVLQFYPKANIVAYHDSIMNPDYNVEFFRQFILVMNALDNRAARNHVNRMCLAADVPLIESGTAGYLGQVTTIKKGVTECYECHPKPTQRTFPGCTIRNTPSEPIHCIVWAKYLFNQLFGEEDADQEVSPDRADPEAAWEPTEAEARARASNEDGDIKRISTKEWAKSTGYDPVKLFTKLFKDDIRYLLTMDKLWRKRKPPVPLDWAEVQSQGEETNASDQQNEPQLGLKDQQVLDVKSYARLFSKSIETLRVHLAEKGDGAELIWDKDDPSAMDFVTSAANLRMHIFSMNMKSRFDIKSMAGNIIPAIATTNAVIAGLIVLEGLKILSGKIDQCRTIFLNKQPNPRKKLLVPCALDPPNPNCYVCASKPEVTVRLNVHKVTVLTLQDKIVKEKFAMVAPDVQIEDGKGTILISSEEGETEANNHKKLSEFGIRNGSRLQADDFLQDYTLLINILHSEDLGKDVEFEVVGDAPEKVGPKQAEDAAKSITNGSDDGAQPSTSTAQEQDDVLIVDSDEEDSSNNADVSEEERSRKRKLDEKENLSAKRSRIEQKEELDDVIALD
Chain of Sphingosine 1-phosphate receptor 2 (O95136 whole entry): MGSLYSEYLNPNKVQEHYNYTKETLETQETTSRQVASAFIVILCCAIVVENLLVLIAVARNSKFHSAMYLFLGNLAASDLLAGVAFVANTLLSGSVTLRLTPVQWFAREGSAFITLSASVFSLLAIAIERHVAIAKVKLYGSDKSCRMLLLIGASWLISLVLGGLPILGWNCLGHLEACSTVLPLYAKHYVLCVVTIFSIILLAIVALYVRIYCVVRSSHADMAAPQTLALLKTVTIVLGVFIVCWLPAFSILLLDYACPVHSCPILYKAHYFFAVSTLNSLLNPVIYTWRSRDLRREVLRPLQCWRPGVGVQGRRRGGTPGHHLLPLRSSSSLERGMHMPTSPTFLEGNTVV
Chain of Paired box protein Pax-8 (Q06710 whole entry): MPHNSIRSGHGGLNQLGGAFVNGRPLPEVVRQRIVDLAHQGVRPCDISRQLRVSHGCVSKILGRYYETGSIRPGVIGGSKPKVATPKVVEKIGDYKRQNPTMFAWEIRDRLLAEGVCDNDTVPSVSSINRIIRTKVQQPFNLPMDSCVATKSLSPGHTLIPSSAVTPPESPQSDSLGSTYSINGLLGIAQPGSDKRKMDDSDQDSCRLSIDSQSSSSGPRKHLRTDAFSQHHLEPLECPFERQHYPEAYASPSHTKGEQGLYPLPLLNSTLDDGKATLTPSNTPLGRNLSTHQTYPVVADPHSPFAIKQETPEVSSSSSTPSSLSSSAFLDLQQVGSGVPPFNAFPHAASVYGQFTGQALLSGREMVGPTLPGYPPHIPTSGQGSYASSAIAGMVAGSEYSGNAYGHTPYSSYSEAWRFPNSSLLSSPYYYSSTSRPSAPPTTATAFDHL
Chain of Genome polyprotein (Hepatitis C virus, UniProt Q2Q167) (Q2Q167 whole entry): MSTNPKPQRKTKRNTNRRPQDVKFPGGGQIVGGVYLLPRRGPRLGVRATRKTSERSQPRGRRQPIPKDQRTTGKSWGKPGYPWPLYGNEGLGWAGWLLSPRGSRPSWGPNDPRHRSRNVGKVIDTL
Chain of Mitogen-activated protein kinase 10 (P53779 whole entry): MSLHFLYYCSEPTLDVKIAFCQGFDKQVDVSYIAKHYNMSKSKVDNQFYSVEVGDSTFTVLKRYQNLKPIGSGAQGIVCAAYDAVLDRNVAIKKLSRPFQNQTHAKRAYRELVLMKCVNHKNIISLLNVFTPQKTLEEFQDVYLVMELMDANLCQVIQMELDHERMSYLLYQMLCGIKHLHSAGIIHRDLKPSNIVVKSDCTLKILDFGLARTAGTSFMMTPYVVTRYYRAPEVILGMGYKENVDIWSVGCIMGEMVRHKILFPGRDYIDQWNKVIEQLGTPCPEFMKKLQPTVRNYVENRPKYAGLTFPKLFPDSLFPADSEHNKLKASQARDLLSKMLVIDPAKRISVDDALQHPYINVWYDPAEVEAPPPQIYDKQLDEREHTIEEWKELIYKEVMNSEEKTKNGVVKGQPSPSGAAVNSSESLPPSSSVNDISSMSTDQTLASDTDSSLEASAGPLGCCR
Chain of Galanin receptor type 3 (O60755 whole entry): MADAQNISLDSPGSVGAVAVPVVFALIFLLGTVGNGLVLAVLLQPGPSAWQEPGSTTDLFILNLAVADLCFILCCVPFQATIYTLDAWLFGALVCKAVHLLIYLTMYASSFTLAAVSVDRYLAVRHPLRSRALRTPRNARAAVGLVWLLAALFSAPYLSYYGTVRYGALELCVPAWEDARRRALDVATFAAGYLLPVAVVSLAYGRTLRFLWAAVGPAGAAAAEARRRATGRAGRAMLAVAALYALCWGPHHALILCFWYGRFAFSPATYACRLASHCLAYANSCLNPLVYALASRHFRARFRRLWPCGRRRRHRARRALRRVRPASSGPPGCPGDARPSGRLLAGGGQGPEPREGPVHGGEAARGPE
Chain of Genome polyprotein (dengue virus type 2, UniProt P29990) (P29990 2492-3391 limits assumed): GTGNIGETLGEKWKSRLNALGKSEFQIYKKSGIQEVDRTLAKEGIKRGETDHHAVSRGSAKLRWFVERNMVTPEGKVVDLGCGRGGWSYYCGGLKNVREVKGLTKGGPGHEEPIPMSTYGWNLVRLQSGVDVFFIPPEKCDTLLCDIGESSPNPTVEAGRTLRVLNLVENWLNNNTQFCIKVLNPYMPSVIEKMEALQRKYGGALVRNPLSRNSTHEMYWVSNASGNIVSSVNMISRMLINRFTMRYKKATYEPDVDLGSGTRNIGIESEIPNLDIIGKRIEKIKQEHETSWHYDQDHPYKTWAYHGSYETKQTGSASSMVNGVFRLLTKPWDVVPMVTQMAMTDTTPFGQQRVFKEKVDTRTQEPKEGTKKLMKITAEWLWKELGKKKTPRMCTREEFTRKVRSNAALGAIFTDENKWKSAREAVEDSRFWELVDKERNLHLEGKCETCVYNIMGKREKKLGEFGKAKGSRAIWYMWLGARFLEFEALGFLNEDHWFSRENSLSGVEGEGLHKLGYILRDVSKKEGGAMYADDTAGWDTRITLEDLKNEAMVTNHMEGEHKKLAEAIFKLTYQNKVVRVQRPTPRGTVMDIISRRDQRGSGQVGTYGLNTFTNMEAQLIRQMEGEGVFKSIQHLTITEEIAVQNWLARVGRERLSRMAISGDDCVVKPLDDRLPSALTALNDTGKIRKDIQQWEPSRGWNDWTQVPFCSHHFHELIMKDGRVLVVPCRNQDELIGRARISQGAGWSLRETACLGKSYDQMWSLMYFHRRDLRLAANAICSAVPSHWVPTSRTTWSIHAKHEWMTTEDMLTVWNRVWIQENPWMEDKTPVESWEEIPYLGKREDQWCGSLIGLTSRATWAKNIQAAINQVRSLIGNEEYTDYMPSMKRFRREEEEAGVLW

Cc1nc2c(=O)n(C)c(=O)n(C)c2nc1Cl
active: IC50 [1] 4.73 µM | AC50 [2] 32.9 µM | EC50 [3] 8.48 µM | CC50 [4] 7.41 µM | CC50 [5] 12.1 µM | EC50 [6] 14.3 µM | IC50 [7] 6.22 µM | AC50 [8] 8.88 µM | CC50 [9] 10.6 µM | AC50 [10] 17.3 µM | IC50 [11] 1.37 µM

O=C1Nc2ccc(F)cc2/C1=C1/Nc2ccc(Br)cc2C1=O
0.35 µM (not active): IC50 [12]

COc1cc(/C=C2\C(=O)N(c3ccccc3)N=C2C)ccc1Oc1ccc([N+](=O)[O-])cc1[N+](=O)[O-]
> 49.8 µM (not active): IC50 [13]
active: IC50 [14] 24.5 µM | IC50 [15] 5.91 µM | IC50 [16] 58 µM

COc1cc(CC(=O)Nc2sccc2C(N)=O)cc(OC)c1OC
active: IC50 [17] 5.94 µM

CCC(NC(=O)Nc1nnc(C(F)(F)F)s1)(C(F)(F)F)C(F)(F)F
inactive: EC50 [26] > 29.9 µM
active: IC50 [18] > 3.32 µM | AC50 [19] 4.23 µM | AC50 [20] 4.15 µM | AC50 [21] 6.87 µM | EC50 [22] 1.4 µM | EC50 [23] 3.15 µM | AC50 [24] 7.24 µM | EC50 [25] 3.27 µM | IC50 [27] 4.77 µM | EC50 [28] 2.79 µM
